Assay results taken from publication PMC10091413, “Modeling the Orthosteric Binding Site of the G Protein-Coupled Odorant Receptor OR5K1” (Journal of Chemical Information and Modeling, 2023).
Where a chain is given by its changes, count along the chain named. Where two headings read alike, the source gives them in different places.

What was measured:
OR5K1 L104^3.32A = target: T1, OR5K1 L104^3.32A (Homo sapiens, UniProt Q8NHB7, L104A); test: cAMP-luminescence concentration-response assay, mutant OR5K1 L104^3.32A in HEK-293 cells; type: cell-based; conditions: OR5K1 L104^3.32A mutant; mean ± SD, n = 4
T1 construct: The protein-coding region of human OR5K1 (NM_001004736.3); IL-6-HaloTag (from expression plasmid pFN210A) (N); expressed in transfected cells; host or cells: HEK-293
T1 sequence (Q8NHB7 1-308 L104A): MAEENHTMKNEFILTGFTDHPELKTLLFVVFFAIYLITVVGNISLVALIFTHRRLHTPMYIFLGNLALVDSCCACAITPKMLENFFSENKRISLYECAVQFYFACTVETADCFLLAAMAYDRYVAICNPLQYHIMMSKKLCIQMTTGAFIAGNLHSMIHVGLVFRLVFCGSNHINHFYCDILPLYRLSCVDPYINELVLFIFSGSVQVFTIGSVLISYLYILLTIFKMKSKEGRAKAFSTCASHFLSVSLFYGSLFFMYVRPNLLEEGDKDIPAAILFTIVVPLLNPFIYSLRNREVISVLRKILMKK
Protocol: (§1) Mutants L104^3.32 and L255^6.51 were generated by PCR-based site-directed mutagenesis in two steps. Step one PCR was performed in two amplifications: one with the forward vector-internal primer and the reverse mutation-primer and the other with the forward mutation-primer and the reverse vector-internal primer. Amplification was performed with the touchdown approach described above. Both PCR amplicons were then purified and used as a template for step two. The two overlapping amplicons were annealed using the following touchdown program: denaturation (98 °C, 3 min), ten cycles containing denaturation (98 °C, 30 s), annealing (start 60 °C, 30 s), and extension (72 °C, 2 min). […]
(§2) We utilized HEK-293 cells,[101] a human embryonic kidney cell-line, as a test cell system for the functional expression of ORs.[102] […] The utilized pGloSensor-22F is a genetically engineered luciferase with a cAMP-binding pocket, allowing for measurements of a direct cAMP-dependent luminescence signal. […]
(§3) Concentration–response assays were measured 42 h post-transfection as described previously.[102] […] For luminescence measurements, the GloMax Discover microplate reader (Promega, Madison, USA) was used. After incubation for 50 min in the dark, the basal luminescence signal of each well was recorded thrice. […]

OR5K1 [1] = target: T2, OR5K1 (Homo sapiens, UniProt Q8NHB7); design: method as in PMID 34047404; conditions: cited from earlier work; for EC50: OR5K1 agonist activity, data retrieved from the literature
T2 construct: The protein-coding region of human OR5K1 (NM_001004736.3); IL-6-HaloTag (from expression plasmid pFN210A) (N); expressed in transfected cells; host or cells: HEK-293
T2 sequence (Q8NHB7 1-308): T1 sequence (Q8NHB7 1-308 L104A) with A104L

OR5K1 L255^6.51A = target: T3, OR5K1 L255^6.51A (Homo sapiens, UniProt Q8NHB7, L255A); test: cAMP-luminescence concentration-response assay, mutant OR5K1 L255^6.51A in HEK-293 cells; type: cell-based; conditions: OR5K1 L255^6.51A mutant; mean ± SD, n = 4
T3 construct: The protein-coding region of human OR5K1 (NM_001004736.3); IL-6-HaloTag (from expression plasmid pFN210A) (N); expressed in transfected cells; host or cells: HEK-293
T3 sequence (Q8NHB7 1-308 L255A): T1 sequence (Q8NHB7 1-308 L104A) with A104L, L255A
Protocol: as §1, §2, §3

OR5K1 [2] = target: T2, OR5K1; test: cAMP-luminescence (GloSensor) concentration-response assay, OR5K1 transiently expressed in HEK-293 cells; type: cell-based; conditions: OR5K1 agonist activity, tested in this work, mean ± SD, n = 4, last tested concentration 300 μM
Protocol: We utilized HEK-293 cells,[101] a human embryonic kidney cell-line, as a test cell system for the functional expression of ORs.[102] Cells were cultivated at 37 °C, 5% CO2, and 100% humidity in 4.5 g/L D-glucose containing DMEM with 10% fetal bovine serum, 2 mM L-glutamine, 100 U/mL penicillin, and 100 U/mL streptomycin. Cells were cultured in a 96-well format (Nunclon Delta Surface, #136102; Thermo Fisher Scientific, Schwerte, Germany) at 12,000 cells/well overnight. Then, cells were transfected utilizing 0.75 μL/well ViaFect (#E4981, Promega, USA) with the following constructs: 100 ng/well of the respective OR construct, 50 ng/well of chaperone RTP1S,[103] 50 ng/well of the G protein subunit Gαolf,[104],[105] olfactory G protein subunit Gγ13,[106] and 50 ng/well of pGloSensor-22F (Promega, Madison, USA).[107] The utilized pGloSensor-22F is a genetically engineered luciferase with a cAMP-binding pocket, allowing for measurements of a direct cAMP-dependent luminescence signal. All measurements were mock-controlled, i.e. pFN210A without OR was transfected in parallel.
as §3, with “thrice. Then the odorant, serially diluted in the physiological salt buffer with added Pluronic PE-10500 (BASF, Ludwigshafen, Germany), was applied to the cells, and luminescence was measured thrice after 10 min of incubation time.” for “thrice.”
The raw luminescence data obtained from the GloMax Discover microplate reader detection system were analyzed for concentration/response assays by averaging both data points of basal levels and data points after odorant application. For a given luminescence signal, the respective basal level was subtracted, and the now corrected data set was normalized to the maximum amplitude of the reference. […]

In the case of CCc1ncc(C)nc1CC [Compound 1, 2,3-Diethyl-5-methylpyrazine], the EC50 (OR5K1 L104^3.32A) is given as 525 ± 92.3 µM, the EC50 (OR5K1 [1]) is given as 10.3 ± 1.06 µM and the EC50 (OR5K1 L255^6.51A) is given as 478 ± 185 µM.

For CCc1nc(C)cnc1C [Compound 2, 2-Ethyl-3,6-dimethylpyrazine], the EC50 (OR5K1 [2]; read-out: EC50) was 14.8 ± 6.69 µM.

For C=CCc1ccc(OC)c(OC)c1 [Compound 3, Methyl eugenol], the EC50 (OR5K1 [1]) is given as 62.2 ± 1.45 µM.

In the case of CCc1nccnc1CC [Compound 4, 2,3-Diethylpyrazine], the EC50 (OR5K1 [1]) is given as 94.4 ± 11.9 µM.

In the case of CCc1nccnc1OC [Compound 5, 2-Ethyl-3-methoxypyrazine], the EC50 (OR5K1 [1]) is listed as 97.4 ± 15.6 µM.

For Cc1cnc(C)c(C)n1 [Compound 6, 2,3,5-Trimethylpyrazine], the EC50 (OR5K1 [1]) is listed as 139 ± 7.08 µM.

For CCc1nccnc1C [Compound 7, 2-Ethyl-3-methylpyrazine], the EC50 (OR5K1 [1]) is given as 538 ± 96.8 µM.

In the case of COc1nccnc1C(C)C [Compound 9, 2-Isopropyl-3-methoxypyrazine], the EC50 (OR5K1 [1]) is given as 146 ± 8.83 µM.

For CCc1nccnc1C(C)=O [Compound 10, 2-Acetyl-3-ethylpyrazine], the EC50 (OR5K1 [1]) is listed as 528 ± 167 µM.

In the case of CC(=O)c1nccnc1C [Compound 11, 2-Acetyl-3-methylpyrazine], the EC50 (OR5K1 [1]) is given as 531 ± 27.6 µM.

In the case of Cc1cncc(C)n1 [Compound 12, 2,6-Dimethylpyrazine], the EC50 (OR5K1 [1]) is given as 544 ± 19.5 µM.

For CCc1ncc(C)nc1C [Compound 13, 2-Ethyl-3,5-dimethylpyrazine], the EC50 (OR5K1 [2]) was “could not be measured to saturation” and the EC50 (OR5K1 [2]; read-out: EC50) was over 300 µM.

For c1cnccn1 [pyrazine, reference compound], the “activation of OR5K1” value (OR5K1 [1]) is listed as “does not activate”.
